In the METLIN SMRT retention time set (Domingo-Almenara et al. 2019):

Assay: gradient 5% acetonitrile 3 min, to 50% in 2 min, to 85% in 15 min, held 3 min, 100 µL/min
Conditions: column: Zorbax Extend-C18 2.1 x 50 mm; eluents: water / acetonitrile, 0.1% formic acid
Method in brief: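 Retention times come from adduct peaks that were picked computationally and then checked by hand. The standards, pure and pooled in mixtures of ~100 molecules, were run on a Zorbax Extend-C18 column (2.1 × 50 mm, 1.8 μm) at 100 μL/min with water and acetonitrile, each with 0.1% formic acid. Detection was by quadrupole time-of-flight mass spectrometry in positive and negative ionization mode, with a dead volume of 40 μL and a dwell volume of 900 μL.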

Structure (SMILES)	RP-LC retention time
COc1ccc(-c2noc(C3CCCN3C(=O)c3ccc(C)c(F)c3)n2)cc1 (centres undefined)	1040 s
Cc1ccc(-c2ncc(NC(=O)C(C)(C)C)cn2)cc1	968 s
N#Cc1cccc(NC(=O)C2CCN(S(=O)(=O)c3cc(-c4noc(C5CCC5)n4)cs3)CC2)c1	1070 s
O=C(NCc1ccc(F)cc1)N1CCN(c2nc3cccnc3n(Cc3ccccc3)c2=O)CC1	1020 s
CCOc1ccc(S(=O)(=O)NC2CCN(c3ccc(=O)[nH]n3)C2)cc1 (centres undefined)	671 s
COc1ccc(-c2nnc(-c3ccc(C)c(S(=O)(=O)Nc4cccnc4)c3)o2)cc1OC	722 s
Cc1cccc(NC(=O)N2[C@H]3CC[C@@H]2c2cncnc2C3)c1	674 s
COc1ccc(CC(=O)Nc2ccc3c(c2)CCC(=O)N3C)c(Cl)c1	768 s
CN(Cc1ccccc1)Cc1cc(=O)n2cc(Cl)ccc2n1	608 s
O=C(Nc1ccccc1)N1CCC(Oc2ccccc2)C1 (centres undefined)	872 s
Cc1ccc(-c2noc(CN3C(=O)C(C)Oc4ccccc43)n2)cc1 (centres undefined)	1120 s
Cc1ccc(-n2nc3c(N4CCCC(C(=O)NCCCN5CCCC5=O)C4)nnc(C)c3c2C)cc1 (centres undefined)	627 s
O=C(Cn1cnc2onc(-c3ccc(F)cc3)c2c1=O)N1CCCc2ccccc21	1040 s
CCN1CCN(c2ccc(N3CCCC(C(=O)N4CCN(c5ccccn5)CC4)C3)nn2)CC1 (centres undefined)	574 s
CC(=O)N1CCCC1c1nc(C2CN(C(=O)CCn3cc(C)cn3)C2)no1 (centres undefined)	604 s
O=C([C@@H]1C[C@H](F)CN1S(=O)(=O)c1cccc(F)c1)N1CCOCC1	676 s
CCc1ccccc1NC(=O)Nc1ccc2nncn2c1	662 s
CC(C)Cc1csc(-c2csc(S(=O)(=O)NCc3ccccc3Cl)c2)n1	1330 s
O=C(Nc1c(F)cccc1F)N1CC(c2nc(C3CC3)no2)C1	670 s
CC(C)n1c(CCNC(=O)c2ccc(F)cc2)nc2cccnc21	656 s

Structure (SMILES)	RP-LC retention time
COc1ccc(-n2c(=O)c(C(=O)NC3CCCCC3)c(O)c3cccnc32)cc1	1300 s
COC(=O)c1ccc(-c2csc(NC(=O)c3c(F)cccc3Cl)n2)cc1	945 s
Cn1cc(-c2cc3n(n2)CCCN3C(=O)CCC(=O)NCCCN2CCCCC2)c2ccccc21	623 s
CCc1ccc(NS(=O)(=O)c2ccc3c(c2)C(=O)N(CC)c2ncccc2O3)cc1	1020 s
CCc1ccc(CNC(=O)CCCN2C(=O)CCn3nc(C)cc32)cc1	726 s
COc1ccc(-c2nc(-c3ccc4c(c3)ncn4CCN3CCCCC3)no2)cc1OC	630 s
COc1ccc(-c2noc(Cc3nnc(-c4cc(C)cc(C)c4)o3)n2)cc1	1110 s
O=C(Nc1ccc2c(c1)OCO2)c1nnc(C2CCCN2C(=O)NCc2ccc(F)cc2)s1 (centres undefined)	854 s
Cc1cccc(-c2nc3nc(C)cc(N(CCO)Cc4ccccc4)n3n2)c1	815 s
Clc1ccc(-c2csc(Nc3c(Cl)cccc3Cl)n2)cc1Cl	1410 s
COc1ccc(CNC(=O)Cn2cccc2-c2nnc(-c3ccccc3)o2)cc1	862 s
Cc1ccc(-c2nc(NCc3cccnc3)ncc2C(=O)O)cc1	587 s
Cc1ccc(N2CN(CCC(C)C)S(=O)(=O)c3cccnc32)cc1	1150 s
COc1ccc(CNC(=O)c2cccc(N3CCNC(c4ccccc4)C3)n2)cc1 (centres undefined)	634 s
Cc1cc(C(N)=O)c2cc(Cl)ccc2n1	592 s
CCc1ccc(-c2noc(CSc3nc4cc5c(cc4c(=O)n3CCOC)OCO5)n2)cc1	1190 s
O=S(=O)(Cc1ccccc1)N1CC(c2nc(Cc3ccccc3)no2)C1	1010 s
CCCCNC(=O)C1CCN(C(=O)Nc2ccc(NC(=O)NC3CCCCC3)cc2)CC1	732 s
Cc1ccc(NC(=O)N2CCCC2c2nc(-c3ccc(F)cc3F)no2)cc1 (centres undefined)	972 s
Cc1ccc(S(=O)(=O)Nc2ccc(C3(C(=O)NCC4CCCO4)CC3)cc2)cc1 (centres undefined)	824 s

Structure (SMILES)	RP-LC retention time
Cc1ccc(-c2nnc(Cc3nc(-c4ccc(F)cc4)no3)o2)cc1F	1100 s
Cc1sc(NC(=O)Cc2nn(C)c(=O)c3ccccc23)nc1-c1ccc(Cl)cc1	982 s
O=S(=O)(NCCc1noc(-c2ccccc2)n1)c1ccc(Cl)cc1	980 s
CS(=O)(=O)N1CCCc2cc(C(=O)Nc3ccc(Br)cc3F)ccc21	951 s
CC(=O)N[C@@H]1CCN(Cc2ccccc2C(F)(F)F)C[C@@H]1CO	574 s
CC(C)Cn1c(=O)c2cc(C(=O)Nc3ccc(N4CCOCC4)cc3)nn2c2ccccc21	953 s
O=C(NCCn1c(-c2ccccc2)nc2cccnc21)Nc1ccc2c(c1)OCO2	722 s
COc1ccc(N2CC(c3noc(-c4ccccc4OC)n3)CC2=O)cc1 (centres undefined)	858 s
CCCCC(=O)Nc1ccc2nc(N3CCN(c4ccccc4)CC3)cc(C(=O)O)c2c1	672 s
COc1ccc(Nc2c(-c3ccc(SC)cc3)nc3cnccn23)cc1OC	818 s
Cn1cc(CC(=O)NCc2ccc(Cl)cc2)c2cccnc21	706 s
COCCCNC(=O)C1Cn2cccc2C(=O)N1CC(C)C (centres undefined)	646 s
O=C(O)c1ccc2c(c1)n(Cc1cccc(F)c1)c(=O)c1ccnn12	784 s
Cc1cc(=O)n(CC(=O)NCCC2=CCCCC2)c(N2CCCCC2)n1	734 s
NC1=NC(c2ccc(Cl)cc2)N(c2ccc(S(N)(=O)=O)cc2)C(N)=N1 (centres undefined)	629 s
Cc1ccc(-n2ncc3c(NCc4ccc5c(c4)OCO5)ncnc32)cc1	939 s
CCc1nc2ncc(-c3ccnc(N4CCN(Cc5ccccc5)CC4)n3)c(C)n2n1	607 s
CCCN(CC1CCOC1)C(=O)Nc1cc(C)ccc1OC (centres undefined)	874 s
Cc1cccc(-c2noc(-c3sccc3NC(=O)c3ccc4nc[nH]c4c3)n2)c1	957 s
CCOc1ccc(NC(=O)Nc2nccn(-c3ccc(C(C)C)cc3)c2=O)cc1	1160 s

Further lines, results first:

RP-LC retention time	Structure (SMILES)
895 s	CCc1cc(=O)n(CC(=O)Nc2ccc(C(C)C)cc2)c(N2CCOCC2)n1
569 s	COC(=O)c1ccc(NC(=O)CN2CCc3[nH]c4c(C)c(Cl)ccc4c(=O)c3C2)cc1
567 s	CN(CC1CCCO1)C1CCN(C(=O)C2CCN(c3ccc(-c4cccs4)nn3)CC2)CC1 (centres undefined)
840 s	CS(=O)(=O)N(C1CCOCC1)C1CCN(C(=O)c2ccc(Cl)cc2)CC1
956 s	COc1ccc(NC(=O)C2CCC(=O)N2S(=O)(=O)c2ccc(C)c(C)c2)cc1Cl (centres undefined)
708 s	CC(C)COc1cc(=O)n2c(c1C(=O)NCC1CC1)CCCCC2
642 s	O=C(NCC1CCCO1)C1CCN(C(=O)C2Sc3ccccc3NC2=O)CC1 (centres undefined)
674 s	CC(=O)c1cccc(NC(=O)N2C[C@H](c3nc(-c4ccncc4)no3)[C@@H](C)C2)c1
693 s	COCCNC(=O)C1CCCN(C(=O)c2cccc(C(F)(F)F)c2)C1 (centres undefined)
904 s	Cc1ccc(NC(=O)C2CCN(S(=O)(=O)c3ccc4[nH]c(=O)sc4c3)CC2)cc1Cl
551 s	Cc1cccc2nnc(N3CCN(C(=O)c4ccncc4)CC3)n12
1090 s	Cc1cc(-c2cc(S(=O)(=O)N3CCC(Cc4ccccc4)CC3)c(C)s2)n[nH]1
661 s	CCOCCCNC(=O)CC1CCN(C(=O)c2[nH]c(C)cc2C)CC1
758 s	O=C(NCC1CCN(C(=O)COc2ccccc2)CC1)c1ccc(F)c(F)c1
742 s	CCCCN1C(=O)C(CC(=O)NC(C)C)Sc2ncccc21 (centres undefined)
673 s	O=C(c1cccs1)N1CCC(c2nncn2Cc2ccccc2)CC1
773 s	Cc1cc(C)cc(NC(=O)CN2C(=O)COc3ccc(C(=O)N4CCCC4)cc32)c1
981 s	CCC(C)NC(=O)c1cc(-c2ccc(F)cc2)cn1C (centres undefined)
863 s	Cc1cc(C)c(C(=O)N2CCC(CC(=O)NC(c3cccs3)C(C)C)CC2)[nH]1 (centres undefined)
698 s	CC(C)CNC(=O)C1CC(=O)N(c2ccc3c(c2)CCN3C(=O)C2CC2)C1 (centres undefined)
1020 s	O=C(Nc1cccc(Cl)c1)C(=O)c1cn(CC(=O)N2CCCC2)c2ccccc12
614 s	CC(CCNC(=O)CN1C(=O)C2CCCCN2c2ccc(C(=O)N3CCCC3)cc21)N1CCCC1 (centres undefined)
868 s	Cc1ccc(C(C)NC(=O)C2CC(=O)N(c3cccc(NC(=O)C(C)C)c3)C2)c(C)c1 (centres undefined)
688 s	Cc1c(-c2nnc(C(=O)NCCCN3CCCC3)o2)oc2c(C)cccc12
727 s	COc1ccc(CC(=O)N2CCCC2c2c(C)noc2C)cc1 (centres undefined)
668 s	O=C(NCc1csc(C2CCN(C(=O)c3cc(F)ccc3F)CC2)n1)C1CC1
733 s	Cc1cccc(CN2CCCN(c3ncccc3-c3nc(C(C)C)no3)CC2)c1
1010 s	Cc1ccccc1CNC(=O)C1CCCN(c2nc3ccsc3c(=O)n2Cc2ccc(F)cc2)C1 (centres undefined)
618 s	CCOC(=O)C1=C(CN(CC)CC)N(C)C(=O)NC1c1ccccc1 (centres undefined)
